Results on one molecule are retold here after patent US20150250174A1, “USE OF N-THIO-ANTHRANILAMIDE COMPOUNDS ON CULTIVATED PLANTS” (BASF SE, priority 2012, published 2015).

In assay [1] the test system is Anticarsia gemmatalis. Description: Another test on a non-GM soybean variety (feeding damage). The assay is classed as in vivo. The note with it: 12.5 g a.i./ha.
Assay [2] has as its system Anticarsia gemmatalis. The note with it: 12.5 g a.i./ha; 5 days after application; GMO soybean BMX Potencia RR.
Assay [3] has as its system Anticarsia gemmatalis. Put plainly: whole plant or invertebrate. The note with it: in Glycine max, 48 h, read-out: mortality 2 DAA.

SMILES strings stand for the structures.

One may read the mortality as the percentage killed. On to `CCS(CC)=NC(=O)c1cc(Cl)cc(C)c1NC(=O)c1cc(C(F)(F)F)nn1-c1ncccc1Cl` [compound I-11, 2-(3-chloro-2-pyridyl)-N-[2-methyl-4-chloro-6-[(diethyl-λ^4-sulfanylidene)carbamoyl]phenyl]-5-(trifluoromethyl)pyrazole-3-carboxamide], for which the “reduction in feeding damage compared to the untreated controls” value in the assay on Anticarsia gemmatalis [1] turned out to be 97%. In the assay on Anticarsia gemmatalis [2], the “reduction of feeding damage compared to the untreated controls” value was found to be 100%. Besides, in the assay with Anticarsia gemmatalis [3], the mortality at 6.25 g/ha is 83% and the mortality at 50 g/ha is 87%.
